Where a SMILES comes first, the peptide text is derived from it. Bridges are numbered along the chain shown (N, C = ends). [ ]: non-standard residue; d: D form. The star is where a group is joined. hPhe(3-Cl-4-CF3) = N[C@@H](CCc1ccc(C(F)(F)F)c(Cl)c1)C(=O)O; NPrPhe(4-CF3) = CCCN[C@@H](Cc1ccc(C(F)(F)F)cc1)C(=O)O; Morpholine(3S-CO) = O=C(O)[C@@H]1COCCN1; Pip(4,4-F2) = O=C(O)[C@@H]1CC(F)(F)CCN1; NMeGly(cPent) = CN[C@H](C(=O)O)C1CCCC1; Hyp = O=C(O)[C@@H]1C[C@@H](O)CN1; NMeD = CN[C@@H](CC(=O)O)C(=O)O; NMeL = CN[C@@H](CC(C)C)C(=O)O; Pip = O=C(O)[C@@H]1CCCCN1; Morpholide = C1CN(*)CCO1; Ac5c = NC1(C(=O)O)CCCC1; Aze = O=C(O)[C@@H]1CCN1; Sar = CNCC(=O)O
Legend:
[1] = molecular target: GDP-bound NRAS wild-type protein (Homo sapiens, UniProt P01111); test: Binding to NRAS by surface plasmon resonance (SPR), Single Cycle Kinetics; conditions: KD ratio NRAS/KRAS, SPR
[2] = molecular target: GDP-bound HRAS wild-type protein (Homo sapiens, UniProt P01112); test: Binding to HRAS by surface plasmon resonance (SPR), Single Cycle Kinetics; conditions: KD ratio HRAS/KRAS, SPR
Sequence of GDP-bound HRAS wild-type protein (P01112 whole entry): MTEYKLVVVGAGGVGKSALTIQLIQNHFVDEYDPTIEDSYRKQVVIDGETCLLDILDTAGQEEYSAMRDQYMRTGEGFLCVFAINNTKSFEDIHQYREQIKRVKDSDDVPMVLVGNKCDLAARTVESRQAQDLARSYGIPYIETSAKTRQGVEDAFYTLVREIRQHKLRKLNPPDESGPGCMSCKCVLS

Sequence of GDP-bound NRAS wild-type protein (P01111 whole entry): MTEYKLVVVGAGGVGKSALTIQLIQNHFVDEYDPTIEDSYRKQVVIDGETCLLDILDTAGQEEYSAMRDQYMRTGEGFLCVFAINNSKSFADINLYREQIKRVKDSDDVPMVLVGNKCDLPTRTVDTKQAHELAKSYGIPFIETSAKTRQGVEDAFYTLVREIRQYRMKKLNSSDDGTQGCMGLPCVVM

Structure (SMILES) | NRAS/KRAS (ratio of KD for GDP-bound NRAS wild-type to KD for KRAS) [1] | HRAS/KRAS (ratio of KD for GDP-bound HRAS wild-type to KD for KRAS) [2]
CCCN1C(=O)CN(C)C(=O)[C@@H]2CCN2C(=O)[C@H]([C@@H](C)CC)NC(=O)[C@H](CC(C)C)N(C)C(=O)C[C@@H](C(=O)N2CCOCC2)N(C)C(=O)[C@H](C2CCCC2)N(C)C(=O)C2(CCCC2)NC(=O)[C@@H]2C[C@@H](OC)CN2C(=O)[C@H](CCc2ccc(C(F)(F)F)c(Cl)c2)NC(=O)CN(C)C(=O)[C@@H]1Cc1ccc(C(F)(F)F)cc1 [PP0309] ([NMeL]I[Aze][Sar][NPrPhe(4-CF3)][Sar][hPhe(3-Cl-4-CF3)][Hyp](Me)[Ac5c][NMeGly(cPent)][NMeD]-Morpholide; lactam N-11) | B (a compound having 3 or more and less than 10 is denoted as B) | B (a compound having 3 or more and less than 10 is denoted as B)
CCCN1C(=O)CN(C)C(=O)[C@@H]2CCN2C(=O)[C@H]([C@@H](C)CC)NC(=O)[C@H](CC(C)C)N(C)C(=O)C[C@@H](C(=O)N2CCOCC2)N(C)C(=O)[C@H](C2CCCC2)N(C)C(=O)C2(CCCC2)NC(=O)[C@@H]2C[C@@H](OCC)CN2C(=O)[C@H](CCc2ccc(C(F)(F)F)c(Cl)c2)NC(=O)CN(C)C(=O)[C@@H]1Cc1ccc(C(F)(F)F)cc1 [PP0310] ([NMeL]I[Aze][Sar][NPrPhe(4-CF3)][Sar][hPhe(3-Cl-4-CF3)][Hyp](Et)[Ac5c][NMeGly(cPent)][NMeD]-Morpholide; lactam N-11) | B (a compound having 3 or more and less than 10 is denoted as B) | C (A compound having a KD ratio of 0.1 or more and less than 3 is denoted as C)
CCCN1C(=O)CN(C)C(=O)[C@@H]2CCN2C(=O)[C@H]([C@@H](C)CC)NC(=O)[C@H](CC(C)C)N(C)C(=O)C[C@@H](C(=O)N2CCOCC2)N(C)C(=O)[C@H](C2CCCC2)N(C)C(=O)C2(CCCC2)NC(=O)[C@@H]2CCCCN2C(=O)[C@H](CCc2ccc(C(F)(F)F)c(Cl)c2)NC(=O)CN(C)C(=O)[C@@H]1Cc1ccc(C(F)(F)F)cc1 [PP0311] ([NMeL]I[Aze][Sar][NPrPhe(4-CF3)][Sar][hPhe(3-Cl-4-CF3)][Pip][Ac5c][NMeGly(cPent)][NMeD]-Morpholide; lactam N-11) | B (a compound having 3 or more and less than 10 is denoted as B) | B (a compound having 3 or more and less than 10 is denoted as B)
CCCN1C(=O)CN(C)C(=O)[C@@H]2CCN2C(=O)[C@H]([C@@H](C)CC)NC(=O)[C@H](CC(C)C)N(C)C(=O)C[C@@H](C(=O)N2CCOCC2)N(C)C(=O)[C@H](C2CCCC2)N(C)C(=O)C2(CCCC2)NC(=O)[C@@H]2CC(F)(F)CCN2C(=O)[C@H](CCc2ccc(C(F)(F)F)c(Cl)c2)NC(=O)CN(C)C(=O)[C@@H]1Cc1ccc(C(F)(F)F)cc1 [PP0312] ([NMeL]I[Aze][Sar][NPrPhe(4-CF3)][Sar][hPhe(3-Cl-4-CF3)][Pip(4,4-F2)][Ac5c][NMeGly(cPent)][NMeD]-Morpholide; lactam N-11) | B (a compound having 3 or more and less than 10 is denoted as B) | B (a compound having 3 or more and less than 10 is denoted as B)
CCCN1C(=O)CN(C)C(=O)[C@@H]2CCN2C(=O)[C@H]([C@@H](C)CC)NC(=O)[C@H](CC(C)C)N(C)C(=O)C[C@@H](C(=O)N2CCOCC2)N(C)C(=O)[C@H](C2CCCC2)N(C)C(=O)C2(CCCC2)NC(=O)[C@@H]2COCCN2C(=O)[C@H](CCc2ccc(C(F)(F)F)c(Cl)c2)NC(=O)CN(C)C(=O)[C@@H]1Cc1ccc(C(F)(F)F)cc1 [PP0313] ([NMeL]I[Aze][Sar][NPrPhe(4-CF3)][Sar][hPhe(3-Cl-4-CF3)][Morpholine(3S-CO)][Ac5c][NMeGly(cPent)][NMeD]-Morpholide; lactam N-11) | B (a compound having 3 or more and less than 10 is denoted as B) | C (A compound having a KD ratio of 0.1 or more and less than 3 is denoted as C)

Source: US20250230193A1, “CYCLIC COMPOUND HAVING SELECTIVE KRAS INHIBITORY EFFECT ON HRAS AND NRAS” (CHUGAI SEIYAKU KABUSHIKI KAISHA, priority 2022, published 2025)
